The target of assay [1] is T1, hSLC13A5 (Homo sapiens, UniProt Q86YT5). Briefly: Recombinant hSLC13A5/14C-citrate uptake assay. The class given is cell-based. To be noted: HEK293 Flp-In cells over-expressing hSLC13A5; WGA-PVT SPA beads; 14C-citrate approx. 2 μM; 4 h. The text has this:
(5) Recombinant hSLC13A5/^14C-Citrate Uptake Assay
The human embryonic kidney 293 (HEK 293)-Flp-In cells (293Flp-In-hSLC13A5) over-expressing hSLC13A5 transporter were cloned: The originating plasmid pcDNA3.1-hSLC13A5 containing hSLC13A5 was synthesized at GeneArt. The cDNA for hSLC13A5 was taken from this plasmid by means of PCR amplification using primers with added HindIII (N-terminal) and XhoI (C-terminal) restriction sites and sub-cloned in frame into pcDNA5/FRT from Invitrogen using the respective restriction enzymes. HEK293 Flp-In cells from Invitrogen were stably co-transfected using the pcDNA/FRT-hSLC13A5 plasmid as well as the pOG44 plasmid.
HEK 293-Flp-In cells are used that stably over-express hSLC13A5 transporter which is responsible for the uptake of citrate into these cells.
The uptake of ^14C-citrate into the 293Flp-In-hSLC13A5 cells is monitored using the WGA-PVT SPA (wheat germ agglutinin-polyvinyltoluene scintillation proximity assay) beads that bind to the 293Flp-In cells due to their WGA-PVT surface. This assay format is based on the imported radioactive citrate brought into proximity with the SPA beads by virtue of the biological processes within the cells. The radioactive decay is converted into a light signal that can be measured using e.g. the TopCount plate reader.
(§1) Method: ^14C-Citrate Uptake Assay
Test Compound Dilutions (2Fold-Concentrated):
Starting from 10 mM stock solutions in 100% DMSO, compounds are diluted in pure DMSO using the appropriate dilution steps.
Prior to the uptake assay, 200 μL assay medium (lx HBSS (with Ca^2+ and Mg^2+, w/o Phenolred), contains 5.56 mM D(+)-Glucose)+19.44 mM D(+)-Glucose (final concentration of D(+)-Glucose is 25 mM))+4.8 μL compound solution (or pure DMSO for non-inhibited control wells) are mixed (final DMSO concentration in the assay: 1% (v/v)).
After preparing the 2fold-concentrated test compound dilutions, 50 μL are pipetted to each well of white OptiPlates-96 and incubated at 37° C. in an incubator.
^14C-Citrate Working Solution (Volumes Required Per 96-Well):
The 293Flp-In-hSLC13A5 cells are cultivated in cell culture medium (DMEM+10% fetal calf serum+100 μg/mL Hygromycin B). The medium of the confluent cultures is discarded and the cells are washed with DPBS (w/o Mg^2+ w/o Ca^2+). The cells are detached by the addition of 2.0 mL Accumax per 75 cm^2 culture flask for up to 3 minutes at 37° C. and resuspended in 10 mL assay medium. After cell counting, 50,000 cells/well are administered in a volume of 50 μL into the white OptiPlates-96 containing the respective test compound concentrations. Following a 20 min incubation at 37° C. in the cell culture incubator, 20 μL of ^14C-citrate working solution is added to each well (final volume per well: 120 μL; final ^14C-citrate concentration: approx. 2 μM/well).
After incubation for 4 h at 37° C. in a humid cell culture incubator and the addition of 30 μL of WGA-PVT SPA beads to each well (0.25 mg/well), the plates are sealed on the top using a transparent plastic foil. Incubate the plates for 1 h by room temperature and gentle shaking.
After incubation, the plate is placed into the TopCount NXT HTS and the signal is recorded.
The performance of the test compounds is calculated as follows:
Wells containing cells incubated with 1% DMSO only deliver values for the non-inhibited ^14C-citrate uptake into 293Flp-In-hSLC13A5 cells (100% CTL). Wells containing cells which have received 30 mM non-labelled potassium citrate solution in addition to the ^14C-citrate working solution deliver values for the background (0% CTL).
(§2) The IC50 values of the compounds are calculated in IDBS XLfit by sigmoidal dose-response (variable slope).

Assay [2] concerns the target T1, hSLC13A5. The assay can be described thus: HepG2/14C-citrate uptake assay. The class given is cell-based. Set-up: HepG2 cells endogenously express hSLC13A5 transporter which is responsible for the uptake of citrate into these cells; endogenous in cells; host or cells: HepG2. As to conditions: HepG2 cells endogenously expressing hSLC13A5; Cytostar-T; 14C-citrate ~1.8 μM; incubation over night.
Text: (4) HepG2/^14C-Citrate Uptake Assay
HepG2 cells endogenously expressing hSLC13A5 were obtained from the Wistar Institute (Knowles et al., Science 1980, 209, 497-499).
HepG2 cells endogenously express hSLC13A5 transporter which is responsible for the uptake of citrate into these cells. […] The uptake of ^14C-citrate into HepG2 cells is monitored using the Cytostar-T assay. This assay format is based on the imported radioactive citrate brought into proximity with the scintillant contained within the base of the plate by virtue of the biological processes within the cells. The radioactive decay is converted to a light signal based on the integration of the scintillation matrix into the assay plate.
as §1
Starting from 10 mM stock solutions in 100% DMSO, compounds are diluted in pure DMSO using the appropriate dilution steps. Prior to the uptake assay, 400 μL assay medium+4.8 μL compound solution (or pure DMSO for non-inhibited control wells) are mixed (final DMSO concentration in the assay: 1% (v/v)) ^14C-citrate working solution (volumes required per 96-well):
The HepG2 cells are cultivated in cell culture medium (EMEM+10% fetal calf serum+1×NEAA and 10 mM L-Glutamin) For the assay, the medium of the confluent cultures is discarded and the cells are washed with DPBS w/o Mg^2+ w/o Ca^2+. The cells are detached by the addition of 1.0 mL 2× Trypsin in DPBS w/o Mg^2+ w/o Ca^2+ with 7.5 mM EDTA per 75 cm^2 culture flask for up to 3 minutes at 37° C. and resuspended in 10 mL cell culture medium. Following cell counting, 100,000 cells/well are seeded in a volume of 200 μL into Cytostar-T Scintillating 96-well microplates. After overnight incubation in a humid cell culture incubator at 37° C., 5% CO2, the cell culture medium is carefully aspirated and the cells are incubated with 200 μL prewarmed (37° C.) assay medium (50% DMEM+50% Ham's F-12+15 mM HEPES (pH 7.4) (medium contains 15.5 m M D(+)-glucose) per well for at least 1 h prior to the experiment.
Immediately prior to uptake assay, the assay medium is carefully removed and 100 μL test compound dilution is added to each well (n=3).
Following a 20 min incubation at 37° C. in the cell culture incubator, 20 μL of ^14C-citrate working solution is added to each well (final volume per well: 120 μL; final ^14C-citrate concentration ˜1.8 μM/well)).
After incubation over night at 37° C. in the cell culture incubator, the plates are sealed on the top using a transparent plastic foil and on the bottom using a white plastic foil. Following the sealing, the plate is placed into the TopCount NXT HTS and the signal is recorded.
as §2

Molecules are shown by their SMILES.

T1 sequence (Q86YT5 whole entry): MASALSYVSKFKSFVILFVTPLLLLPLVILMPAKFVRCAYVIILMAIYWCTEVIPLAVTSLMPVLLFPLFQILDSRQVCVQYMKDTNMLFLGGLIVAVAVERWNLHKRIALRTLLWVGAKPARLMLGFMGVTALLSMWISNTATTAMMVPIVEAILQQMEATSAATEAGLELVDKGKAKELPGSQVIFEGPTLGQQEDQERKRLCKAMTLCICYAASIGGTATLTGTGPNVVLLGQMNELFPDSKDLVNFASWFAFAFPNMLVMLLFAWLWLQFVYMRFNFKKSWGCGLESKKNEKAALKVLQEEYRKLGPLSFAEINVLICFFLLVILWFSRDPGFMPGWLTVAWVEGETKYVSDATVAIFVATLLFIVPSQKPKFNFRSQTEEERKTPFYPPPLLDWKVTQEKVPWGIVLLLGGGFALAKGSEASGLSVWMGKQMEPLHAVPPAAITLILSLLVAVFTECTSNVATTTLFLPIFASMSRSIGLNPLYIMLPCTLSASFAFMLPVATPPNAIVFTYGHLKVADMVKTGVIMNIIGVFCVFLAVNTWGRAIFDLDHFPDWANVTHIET

For the compound `O=C(NCc1ccccc1F)C1CCN(S(=O)(=O)c2cc(Cl)cc(Cl)c2)CC1` [(I-2)], the values for the half-inhibitory concentration (IC50) at hSLC13A5 [1] and at hSLC13A5 [2] were 87 nM and 35 nM, respectively.
Taken in the same sequence, the figures for `Cc1cc(Br)cc(S(=O)(=O)N2CCC(C(=O)NCc3ccccn3)CC2)c1` [(I-61)] were 437 nM and 149 nM.
Taken in the same sequence, the figures for `O=C(NCc1ccccn1)C1CCN(S(=O)(=O)c2cc(Cl)cc(Cl)c2)CC1` [(I-11)] were 687 nM and 455 nM.
The corresponding values for `N#Cc1ccc(CNC(=O)C2CCN(S(=O)(=O)c3cc(Cl)cc(Cl)c3)CC2)cc1` [Example (I-1)] are 79 nM and 74 nM.
Regarding `O=C(NCc1ccc(F)cn1)C1CCN(S(=O)(=O)c2cc(Cl)cc(Cl)c2)CC1` [(I-20)], the IC50 came out at 392 nM on hSLC13A5 [1] and 233 nM on hSLC13A5 [2].
For `O=C(NCc1ccc(Cl)cc1)C1CCN(S(=O)(=O)c2cc(Cl)cc(Cl)c2)CC1` [(I-5)], the IC50 turned out to be 56 nM on hSLC13A5 [1] and 22 nM at hSLC13A5 [2].
Taken in the same sequence, the figures for `O=C(NCc1ccc(F)cc1)C1CCN(S(=O)(=O)c2cc(Cl)cc(Cl)c2)CC1` [(I-10)] were 56 nM and 24 nM.
Taken in the same sequence, the figures for `Cc1ccc(CNC(=O)C2CCN(S(=O)(=O)c3cc(Cl)cc(Cl)c3)CC2)nc1` [(I-15)] were 193 nM and 152 nM.
The corresponding values for `Cc1cnc(CNC(=O)C2CCN(S(=O)(=O)c3cc(Cl)cc(Cl)c3)CC2)s1` [(I-27)] are 341 nM and 113 nM.
For `CCOc1cc(Cl)cc(S(=O)(=O)N2CCC(C(=O)NCc3nccs3)CC2)c1` [(I-49)], the IC50 was determined as 154 nM at hSLC13A5 [1] and 100 nM against hSLC13A5 [2].

By IC50 is commonly meant the midpoint of a concentration-inhibition curve.

Source of the values: US10793522B2, “Sulfonamides as inhibitors of the uptake of extracellular citrate” (Boehringer Ingelheim International GmbH, priority 2016, dated 2020).
